Data reported in paper PMC11600510 (Journal of Chemical Information and Modeling, 2024).

Assays:
[1] = system: Vero E6 cells; assay: MTT toxicity assay in Vero E6 cells; format: cell-based; details: 48 h
Experimental: (§1) Chemical compounds were dissolved and serially diluted in DMSO. Their cytotoxicity was assessed using an MTT assay. Briefly, HEK293T, SH-SY5Y or Vero E6 cells were cultured in 96-well plates (4 × 10^4 cells/well) at 37 °C in a 5% CO2 atmosphere. Cells were treated for 48 h with varying concentrations of the compounds (100–0.1 μM) or solvent. […] Treated cells were incubated for 4 h with […] MTT (Applichem). After incubation, the MTT-containing medium was removed and formazan crystals were dissolved in DMSO. The optical density (OD) of formazan solution at 570 and 630 nm was measured in a SPARK plate reader (Tecan).

[2] = molecular target: T1, Spike RBD/ACE2 (19–615) interaction (Severe acute respiratory syndrome coronavirus 2, UniProt P0DTC2); assay: cell-based; format: cell-based, SARS-CoV-2
T1 construct: S protein RBD (aa residues 319–541) of SARS-CoV-2; expressed in transfected cells; host or cells: HEK293T

[3] = system: HEK293T cells; assay: MTT cytotoxicity assay in HEK293T cells; format: cell-based; details: 100 μM, 48 h
Experimental: as §1

Row | Compound | toxicity against Vero E6 cells [1] | inhibition at 10 µM ([2]; HEK-293T, 48 h, read-out: suppression of Spike RBD/ACE2 (19–615) interaction) [%] | melting point | suppression of Spike/ACE2 interaction ([2]; 100 μM) [%] | cytotoxicity [3]
1 | O=[N+]([O-])c1ccc(/C=C/C[n+]2cn(CCc3ccc4ccccc4c3)c3ccccc32)cc1.[Br-] [CKP-47, (E)-1-(2-(Naphthalen-2-yl)ethyl)-3-(3-(4-nitrophenyl)allyl)-1H-benzo[d]imidazol-3-ium Bromide] | toxic | 34 | 176 to 177 °C (dec.) | – | –
2 | Cc1cc(O)c2c(c1)C(=O)c1cc(O)cc(O)c1C2=O [Emodin, reference compound] | – | – | – | ~27 | non-cytotoxic
